Assay results published in PubChem BioAssay (NCI).
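Compound exposure: 48 hours, 5 concentrations, 96-well plates. TGI denotes the concentration required for complete inhibition of growth.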

Key:
Experiment in all cases: inhibition of tumour cell growth, NCI panel, 48 h
786-0 renal = system: 786-0 renal
A498 renal = system: A498 renal
A549 NSCLC = system: A549 NSCLC
ACHN renal = system: ACHN renal
BT-549 breast = system: BT-549 breast
CAKI-1 renal = system: CAKI-1 renal
CCRF-CEM leukemia = system: CCRF-CEM leukemia
COLO 205 colon = system: COLO 205 colon
DU-145 prostate = system: DU-145 prostate
EKVX NSCLC = system: EKVX NSCLC
HCC-2998 colon = system: HCC-2998 colon
HCT-116 colon = system: HCT-116 colon
HCT-15 colon = system: HCT-15 colon
HL-60(TB) leukemia = system: HL-60(TB) leukemia
HOP-62 NSCLC = system: HOP-62 NSCLC
HOP-92 NSCLC = system: HOP-92 NSCLC
HS 578T breast = system: HS 578T breast
HT29 colon = system: HT29 colon
IGROV1 ovarian = system: IGROV1 ovarian
KM12 colon = system: KM12 colon
M14 melanoma = system: M14 melanoma
MALME-3M melanoma = system: MALME-3M melanoma
MCF7 breast = system: MCF7 breast
MDA-MB-231 breast = system: MDA-MB-231 breast
MDA-MB-435 = system: MDA-MB-435
MDA-N = system: MDA-N
MOLT-4 leukemia = system: MOLT-4 leukemia
NCI-H226 lung = system: NCI-H226 lung
NCI-H23 lung = system: NCI-H23 lung
NCI-H460 lung = system: NCI-H460 lung
NCI-H522 lung = system: NCI-H522 lung
NCI/ADR-RES ovarian = system: NCI/ADR-RES ovarian
OVCAR-3 ovarian = system: OVCAR-3 ovarian
OVCAR-4 ovarian = system: OVCAR-4 ovarian
OVCAR-5 ovarian = system: OVCAR-5 ovarian
OVCAR-8 ovarian = system: OVCAR-8 ovarian
PC-3 prostate = system: PC-3 prostate
RPMI-8226 leukemia = system: RPMI-8226 leukemia
RXF 393 renal = system: RXF 393 renal
SF-268 CNS = system: SF-268 CNS
SF-295 CNS = system: SF-295 CNS
SK-MEL-2 melanoma = system: SK-MEL-2 melanoma
SK-MEL-28 melanoma = system: SK-MEL-28 melanoma
SK-MEL-5 melanoma = system: SK-MEL-5 melanoma
SK-OV-3 ovarian = system: SK-OV-3 ovarian
SN12C renal = system: SN12C renal
SNB-19 CNS = system: SNB-19 CNS
SNB-75 CNS = system: SNB-75 CNS
SW-620 colon = system: SW-620 colon
T-47D breast = system: T-47D breast
TK-10 renal = system: TK-10 renal
U251 CNS = system: U251 CNS
UACC-257 melanoma = system: UACC-257 melanoma
UACC-62 melanoma = system: UACC-62 melanoma
UO-31 renal = system: UO-31 renal
K-562 leukemia = system: K-562 leukemia
LOX IMVI melanoma = system: LOX IMVI melanoma
SF-539 CNS = system: SF-539 CNS
SR leukemia = system: SR leukemia

## CN(C)c1ccc(/C=C2\N=C(N/N=C/c3ccccc3)NC2=O)cc1
786-0 renal
  TGI: > 100 µM
A498 renal
  TGI: > 100 µM
A549 NSCLC
  TGI: > 100 µM
ACHN renal
  TGI: > 100 µM
BT-549 breast
  TGI: > 100 µM
CAKI-1 renal
  TGI: > 100 µM
CCRF-CEM leukemia
  TGI: > 100 µM
COLO 205 colon
  TGI: > 100 µM
DU-145 prostate
  TGI: > 100 µM
EKVX NSCLC
  TGI: > 100 µM
HCC-2998 colon
  TGI: > 100 µM
HCT-116 colon
  TGI: > 100 µM
HCT-15 colon
  TGI: > 100 µM
HL-60(TB) leukemia
  TGI: > 100 µM
HOP-62 NSCLC
  TGI: > 100 µM
HOP-92 NSCLC
  TGI: 79.1 µM
HS 578T breast
  TGI: > 100 µM
HT29 colon
  TGI: > 100 µM
IGROV1 ovarian
  TGI: > 100 µM
KM12 colon
  TGI: > 100 µM
M14 melanoma
  TGI: > 100 µM
MALME-3M melanoma
  TGI: > 100 µM
MCF7 breast
  TGI: > 100 µM
MDA-MB-231 breast
  TGI: > 100 µM
MDA-MB-435
  TGI: > 100 µM
MDA-N
  TGI: > 100 µM
MOLT-4 leukemia
  TGI: > 100 µM
NCI-H226 lung
  TGI: > 100 µM
NCI-H23 lung
  TGI: > 100 µM
NCI-H460 lung
  TGI: > 100 µM
NCI-H522 lung
  TGI: > 100 µM
NCI/ADR-RES ovarian
  TGI: > 100 µM
OVCAR-3 ovarian
  TGI: > 100 µM
OVCAR-4 ovarian
  TGI: > 100 µM
OVCAR-5 ovarian
  TGI: > 100 µM
OVCAR-8 ovarian
  TGI: 72.8 µM
PC-3 prostate
  TGI: > 100 µM
RPMI-8226 leukemia
  TGI: > 100 µM
RXF 393 renal
  TGI: 70.4 µM
SF-268 CNS
  TGI: > 100 µM
SF-295 CNS
  TGI: > 100 µM
SK-MEL-2 melanoma
  TGI: > 100 µM
SK-MEL-28 melanoma
  TGI: > 100 µM
SK-MEL-5 melanoma
  TGI: > 100 µM
SK-OV-3 ovarian
  TGI: > 100 µM
SN12C renal
  TGI: > 100 µM
SNB-19 CNS
  TGI: > 100 µM
SNB-75 CNS
  TGI: > 100 µM
SW-620 colon
  TGI: > 100 µM
T-47D breast
  TGI: > 100 µM
TK-10 renal
  TGI: > 100 µM
U251 CNS
  TGI: > 100 µM
UACC-257 melanoma
  TGI: > 100 µM
UACC-62 melanoma
  TGI: > 100 µM
UO-31 renal
  TGI: > 100 µM

## O=c1cc(NCC2CCCCC2)[nH]c(=O)[nH]1
786-0 renal
  TGI: > 100 µM
A498 renal
  TGI: > 100 µM
A549 NSCLC
  TGI: > 100 µM
ACHN renal
  TGI: > 100 µM
BT-549 breast
  TGI: > 100 µM
CCRF-CEM leukemia
  TGI: > 100 µM
COLO 205 colon
  TGI: > 100 µM
DU-145 prostate
  TGI: > 100 µM
EKVX NSCLC
  TGI: > 100 µM
HCC-2998 colon
  TGI: > 100 µM
HCT-116 colon
  TGI: > 100 µM
HCT-15 colon
  TGI: > 100 µM
HL-60(TB) leukemia
  TGI: > 100 µM
HOP-62 NSCLC
  TGI: > 100 µM
HOP-92 NSCLC
  TGI: > 100 µM
HS 578T breast
  TGI: > 100 µM
IGROV1 ovarian
  TGI: > 100 µM
K-562 leukemia
  TGI: > 100 µM
KM12 colon
  TGI: > 100 µM
LOX IMVI melanoma
  TGI: > 100 µM
M14 melanoma
  TGI: > 100 µM
MALME-3M melanoma
  TGI: > 100 µM
MCF7 breast
  TGI: > 100 µM
MDA-MB-231 breast
  TGI: > 100 µM
MDA-MB-435
  TGI: > 100 µM
MDA-N
  TGI: > 100 µM
NCI-H226 lung
  TGI: > 100 µM
NCI-H23 lung
  TGI: > 100 µM
NCI-H460 lung
  TGI: > 100 µM
NCI/ADR-RES ovarian
  TGI: > 100 µM
OVCAR-3 ovarian
  TGI: > 100 µM
OVCAR-4 ovarian
  TGI: > 100 µM
OVCAR-5 ovarian
  TGI: > 100 µM
OVCAR-8 ovarian
  TGI: > 100 µM
PC-3 prostate
  TGI: > 100 µM
RPMI-8226 leukemia
  TGI: > 100 µM
RXF 393 renal
  TGI: > 100 µM
SF-268 CNS
  TGI: > 100 µM
SF-295 CNS
  TGI: > 100 µM
SF-539 CNS
  TGI: > 100 µM
SK-MEL-28 melanoma
  TGI: > 100 µM
SK-MEL-5 melanoma
  TGI: > 100 µM
SN12C renal
  TGI: > 100 µM
SNB-19 CNS
  TGI: > 100 µM
SNB-75 CNS
  TGI: > 100 µM
SR leukemia
  TGI: > 100 µM
SW-620 colon
  TGI: > 100 µM
TK-10 renal
  TGI: > 100 µM
U251 CNS
  TGI: > 100 µM
UACC-257 melanoma
  TGI: > 100 µM
UO-31 renal
  TGI: > 100 µM
